{"source": "patent US11312687B2", "about": "“7H-azulene [1,2,3-i,j] isoquinolin-7-one compound, single crystal and use thereof” (Hunan University of Chinese Medicine, priority 2017, dated 2022)", "test_system": "PC12 cells damaged by Aβ25-35", "test": "Protective effect on PC12 cells damaged by Aβ25-35 (MTT cell viability)", "type": "cell-based, rat", "from_the_text": "Protective effect of 6-hydroxy-5,8-dimethoxy-7H-azulene [1,2,3-i,j] isoquinolin-7-one on PC12 cells damaged by Aβ25-35: cell seeding in the 96-well plate was the same as above, and the experiment was divided into 5 groups, 4 holes in each group.", "note": "Where two headings read alike, the source gives them in different places."}
{"smiles": "COc1cc2ccnc3c2c(c1O)-c1c-3cccc(OC)c1=O", "note": "[6-hydroxy-5,8-dimethoxy-7H-azulene [1,2,3-i,j] isoquinolin-7-one]", "values": [{"measurement": "viability at 0.5 µg/mL", "setting": "Rattus norvegicus, PC-12, 0.5 ug·mL^-1 sample, 30 μmol/L Aβ25-35, 24 h, MTT, x ± s, n = 4", "result": "85.8 ± 1.6", "unit": "%"}, {"measurement": "viability at 1 µg/mL", "setting": "Rattus norvegicus, PC-12, 1.0 ug·mL^-1 sample, 30 μmol/L Aβ25-35, 24 h, MTT, x ± s, n = 4, read-out: cell viability (%)", "result": "103 ± 1.8", "unit": "%"}, {"measurement": "viability at 5 µg/mL", "setting": "Rattus norvegicus, PC-12, 5.0 ug·mL^-1 sample, 30 μmol/L Aβ25-35, 24 h, MTT, x ± s, n = 4", "result": "77.4 ± 3.8", "unit": "%"}, {"measurement": "viability at 1 µg/mL", "setting": "Rattus norvegicus, PC-12, concentration of 1.0 μg·mL^-1, 30 μmol/L Aβ25-35, read-out: viability of PC12 damaged cells", "result": "> 95", "unit": "%"}, {"measurement": "cell viability compared to model group", "setting": "three different concentrations (0.5, 1.0, 5.0 μg·mL^-1), P<0.01 vs model group", "result": "significantly increased cell viability"}]}
